Tested on: epithelial surface of the backs of 18 month old ovarectomized and sham ovarectomized rats
Assay: Parallel study of moisturiser and antibiotic on epithelial thickness
Format: in vivo, rat
Text: In a parallel study a moisturiser (hydroderm), the topical antibiotic Chloromycetin (chloramphenicol), coconut oil, or coconut oil extracted into ethanol were applied to the epithelial surface of the backs of 18 month old ovarectomized and sham ovarectomized rats and compared to the epithelial surface of an adjacent untreated site. […] The results also indicate that the changes noted in the epithelium are not related to any antimicrobial capacity of the extracts as the changes are not able to be replicated by chloramphenicol.

## O=C(N[C@H](CO)[C@H](O)c1ccc([N+](=O)[O-])cc1)C(Cl)Cl [Chloromycetin (chloramphenicol), chloramphenicol]
  thickness of the treated skin compared to the untreated adjacent skin: No significant difference
